Data taken from patent publication US20230310464A1, “USE OF C[…] THE TREATMENT OF SEIZURES ASSOCIATED WITH RARE […] SYNDROMES RELATED TO BRAIN INJURY” (GW Research Limited, priority 2020, published 2023).
“Also recorded” adds a separate entry of the source.

Test system: seizures associated with hypoxic ischaemic encephalopathy (HIE) or anoxia at birth
Test: Open label, expanded-access program: seizure frequency recorded by caregivers in a diary, relative to baseline
Assay type: in vivo, human
Parameters: reduction in tonic seizures over the treatment period / reduction in spasms over the treatment period / reduction in absence seizures over the treatment period / reduction in tonic-clonic seizures over the treatment period / reduction in myoclonic seizures over the treatment period: concentration or dose not given beside the values; Seizure frequency, Tonic / Seizure frequency, Spasm / Seizure frequency, Absence / Seizure frequency, Tonic-clonic / Seizure frequency, Focal with impairment / Seizure frequency, Atonic / Seizure frequency, Focal without impairment / Seizure frequency, Focal secondary generalisation / Seizure frequency, Myoclonic: unit not given here
Experimental: Subjects were required to be on one or more AEDs at stable doses for a minimum of two weeks prior to baseline and to have stable vagus nerve stimulation (VNS) settings and ketogenic diet ratios for a minimum of four weeks prior to baseline.
Dose was then increased weekly by 5 mg/kg/day to a goal of 20 to 25 mg/kg/day.
Modifications were made to concomitant AEDs as per clinical indication.
Seizure frequency, intensity, and duration were recorded by caregivers in a diary during a baseline period of at least 28 days. Changes in seizure frequency relative to baseline were calculated after at least 2 weeks and at defined timepoints of treatment.
Patients may be defined as responders if they had more than 50% reduction in seizure frequency compared to baseline. The percent change in seizure frequency was calculated as follows: […]
The percent change of seizure frequency may be calculated for any time interval where seizure number has been recorded. For the purpose of this example the percent change of seizure frequency for the end of the treatment period was calculated as follows: […]

[1] = Patient 4, 48 weeks, CBD 15.0 mg/kg/day
[2] = Patient 4, 60 weeks, CBD 20.0 mg/kg/day
[3] = Patient 4, treated for 60 weeks, vs baseline
[4] = Patient 5, 2 weeks, CBD 10.0 mg/kg/day
[5] = Patient 5, 4 weeks, CBD 20.0 mg/kg/day
[6] = Patient 5, 8 weeks, CBD 25.0 mg/kg/day
[7] = Patient 5, 12 weeks, CBD 25.0 mg/kg/day
[8] = Patient 5, 16 weeks, CBD 25.0 mg/kg/day
[9] = Patient 6, 2 weeks, CBD 10.0 mg/kg/day
[10] = Patient 6, treated for 2 weeks, vs baseline
[11] = Patient 7, 2 weeks, CBD 5.0 mg/kg/day
[12] = Patient 7, 4 weeks, CBD 10.0 mg/kg/day
[13] = Patient 7, 8 weeks, CBD 20.0 mg/kg/day
[14] = Patient 7, 12 weeks, CBD 25.0 mg/kg/day
[15] = Patient 9, 2 weeks, CBD 15.0 mg/kg/day
[16] = Patient 9, 4 weeks, CBD 20.0 mg/kg/day
[17] = Patient 9, 8 weeks, CBD 25.0 mg/kg/day
[18] = Patient 9, 12 weeks, CBD 25.0 mg/kg/day
[19] = Patient 9, 16 weeks, CBD 25.0 mg/kg/day
[20] = Patient 9, 24 weeks, CBD 25.0 mg/kg/day
[21] = Patient 9, 36 weeks, CBD 25.0 mg/kg/day
[22] = Patient 9, 48 weeks, CBD 25.0 mg/kg/day
[23] = Patient 9, 60 weeks, CBD 25.0 mg/kg/day
[24] = Patient 9, 72 weeks, CBD 25.0 mg/kg/day
[25] = Patient 9, 84 weeks, CBD 25.0 mg/kg/day
[26] = Patient 9, 108 weeks, CBD 25.0 mg/kg/day
[27] = Patient 9, 132 weeks, CBD 25.0 mg/kg/day

## C=C(C)[C@@H]1CCC(C)=C[C@H]1c1c(O)cc(CCCCC)cc1O [CBD, cannabidiol]
Patient 4, 36 weeks, CBD 15.0 mg/kg/day
  Seizure frequency, Tonic-clonic: 0
[1]
  Seizure frequency, Atonic: 0
  Seizure frequency, Tonic: 0
  Seizure frequency, Tonic-clonic: 3.3
[2]
  Seizure frequency, Atonic: 4.0
  Seizure frequency, Tonic: 0
  Seizure frequency, Tonic-clonic: 19.3
[3]
  reduction in tonic seizures over the treatment period: 100%
  reduction in tonic-clonic seizures over the treatment period: 87.1%
[4]
  Seizure frequency, Focal secondary generalisation: 114.0
  Seizure frequency, Focal without impairment: 0
[5]
  Seizure frequency, Focal secondary generalisation: 106.0
  Seizure frequency, Focal without impairment: 2.0
[6]
  Seizure frequency, Focal secondary generalisation: 112.8
  Seizure frequency, Focal without impairment: 1.9
[7]
  Seizure frequency, Focal secondary generalisation: 111.0
  Seizure frequency, Focal without impairment: 2.1
[8]
  Seizure frequency, Focal secondary generalisation: 125.5
  Seizure frequency, Focal without impairment: 3.9
Patient 5, treated for 16 weeks
  reduction in seizures over the treatment period (in words): did not experience a reduction in seizures
[9]
  Seizure frequency, Spasm: 100.0
  Seizure frequency, Tonic-clonic: 10.0
[10]
  reduction in spasms over the treatment period: 53.9%
  reduction in tonic-clonic seizures over the treatment period: 28.6%
[11]
  Seizure frequency, Focal with impairment: 70.0
  Seizure frequency, Myoclonic: 58.0
  Seizure frequency, Tonic-clonic: 74.0
[12]
  Seizure frequency, Focal with impairment: 78.0
  Seizure frequency, Myoclonic: 18.0
  Seizure frequency, Tonic-clonic: 102.0
[13]
  Seizure frequency, Focal with impairment: 65.3
  Seizure frequency, Myoclonic: 65.3
  Seizure frequency, Tonic-clonic: 86.7
[14]
  Seizure frequency, Focal with impairment: 71.0
  Seizure frequency, Myoclonic: 7.0
  Seizure frequency, Tonic-clonic: 65.0
Patient 7, treated for 12 weeks, vs baseline
  reduction in myoclonic seizures over the treatment period: 30%
Patient 8, 4 weeks, CBD 5.0 mg/kg/day
  Seizure frequency, Absence: 5376.0
Patient 8, 8 weeks, CBD 5.0 mg/kg/day
  Seizure frequency, Absence: 4803.0
Patient 8, 12 weeks, CBD 10.0 mg/kg/day
  Seizure frequency, Absence: 3514.0
Patient 8, 24 weeks, CBD 15.0 mg/kg/day
  Seizure frequency, Absence: 4284.0
Patient 8, 36 weeks, CBD 20.0 mg/kg/day
  Seizure frequency, Absence: 2989.3
Patient 8, 48 weeks, CBD 25.0 mg/kg/day
  Seizure frequency, Absence: 3360.0
Patient 8, 60 weeks, CBD 25.0 mg/kg/day
  Seizure frequency, Absence: 3136.0
Patient 8, 72 weeks, CBD 25.0 mg/kg/day
  Seizure frequency, Absence: 2968.0
Patient 8, 84 weeks, CBD 25.0 mg/kg/day
  Seizure frequency, Absence: 2718.0
Patient 8, treated for 84 weeks, vs baseline
  reduction in absence seizures over the treatment period: 64%
[15]
  Seizure frequency, Myoclonic: 2.0
  Seizure frequency, Tonic: 118.0
[16]
  Seizure frequency, Myoclonic: 1.0
  Seizure frequency, Tonic: 88.0
[17]
  Seizure frequency, Myoclonic: 0
  Seizure frequency, Tonic: 48.0
[18]
  Seizure frequency, Myoclonic: 0
  Seizure frequency, Tonic: 92.0
[19]
  Seizure frequency, Myoclonic: 0
  Seizure frequency, Tonic: 90.0
[20]
  Seizure frequency, Myoclonic: 0
  Seizure frequency, Tonic: 142.4
[21]
  Seizure frequency, Myoclonic: 0
  Seizure frequency, Tonic: 53.0
[22]
  Seizure frequency, Myoclonic: 0
  Seizure frequency, Tonic: 98.0
[23]
  Seizure frequency, Myoclonic: 0
  Seizure frequency, Tonic: 95.6
[24]
  Seizure frequency, Myoclonic: 0
  Seizure frequency, Tonic: 96.0
[25]
  Seizure frequency, Myoclonic: 0
  Seizure frequency, Tonic: 99.2
[26]
  Seizure frequency, Myoclonic: 0
  Seizure frequency, Tonic: 69.0
[27]
  Seizure frequency, Myoclonic: 0
  Seizure frequency, Tonic: 76.8
Patient 10, 4 weeks, CBD 5.0 mg/kg/day
  Seizure frequency, Absence: 10.0
Patient 10, 12 weeks, CBD 10.0 mg/kg/day
  Seizure frequency, Absence: 610.0
Patient 10, 24 weeks, CBD 15.0 mg/kg/day
  Seizure frequency, Absence: 304.0
Patient 10, 36 weeks, CBD 20.0 mg/kg/day
  Seizure frequency, Absence: 2184.6
Patient 10, 48 weeks, CBD 25.0 mg/kg/day
  Seizure frequency, Absence: 1957.3
Patient 10, 60 weeks, CBD 25.0 mg/kg/day
  Seizure frequency, Absence: 1520.3
Patient 10, 72 weeks, CBD 25.0 mg/kg/day
  Seizure frequency, Absence: 1655.6
Patient 10, 84 weeks, CBD 25.0 mg/kg/day
  Seizure frequency, Absence: 1626.6
Patient 10, 96 weeks, CBD 25.0 mg/kg/day
  Seizure frequency, Absence: 1678.3
Patient 10, 120 weeks, CBD 25.0 mg/kg/day
  Seizure frequency, Absence: 1644.5
Patient 10, 132 weeks, CBD 25.0 mg/kg/day
  Seizure frequency, Absence: 1370.8
Patient 10, treated for 132 weeks, vs baseline
  reduction in absence seizures over the treatment period: 54.3%
Patient #2
  time of CBD treatment after which patient became seizure free of tonic seizures: 36 weeks
Patient #4
  time of CBD treatment after which patient became seizure free of tonic seizures: 12 weeks
Patients 2 and 4, between 12 and 36 weeks of treatment
  seizure freedom in patients with tonic seizures (in words): completely seizure free
tonic, tonic-clonic, atonic, myoclonic, absence, focal seizures with impairment and spasms, HIE or anoxia at birth
  effect on seizures / seizure frequency (in words): effective in reducing the frequency; also recorded: significantly reduce the number of seizures; also recorded: significant reduction
